Data taken from PubChem BioAssay (NCI).
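Cultured in 96-well plates, cells were exposed to test compound for 48 hours across five concentrations. At the GI50, growth is halved. TGI marks complete inhibition of growth.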

How the values were obtained:
Assay in all cases: DTP human tumour cell line panel, 48 h
[1] = system: SK-OV-3 ovarian
[2] = system: MDA-MB-435
[3] = system: UACC-257 melanoma
[4] = system: UACC-62 melanoma
[5] = system: UO-31 renal
[6] = system: SF-295 CNS
[7] = system: NCI-H522 lung
[8] = system: HCT-15 colon
[9] = system: HOP-92 NSCLC
[10] = system: MALME-3M melanoma
[11] = system: BT-549 breast
[12] = system: MDA-MB-231 breast
[13] = system: SW-620 colon
[14] = system: COLO 205 colon
[15] = system: OVCAR-8 ovarian
[16] = system: SK-MEL-2 melanoma
[17] = system: TK-10 renal
[18] = system: PC-3 prostate
[19] = system: HT29 colon
[20] = system: SF-268 CNS
[21] = system: RXF 393 renal
[22] = system: SF-539 CNS
[23] = system: SK-MEL-28 melanoma
[24] = system: HS 578T breast
[25] = system: SK-MEL-5 melanoma
[26] = system: M14 melanoma
[27] = system: A498 renal
[28] = system: ACHN renal
[29] = system: OVCAR-5 ovarian
[30] = system: CAKI-1 renal
[31] = system: NCI/ADR-RES ovarian
[32] = system: IGROV1 ovarian
[33] = system: 786-0 renal
[34] = system: KM12 colon
[35] = system: HCC-2998 colon
[36] = system: SNB-75 CNS
[37] = system: NCI-H23 lung
[38] = system: EKVX NSCLC
[39] = system: CCRF-CEM leukemia
[40] = system: T-47D breast
[41] = system: HL-60(TB) leukemia
[42] = system: RPMI-8226 leukemia
[43] = system: HCT-116 colon
[44] = system: MCF7 breast
[45] = system: NCI-H226 lung
[46] = system: SN12C renal
[47] = system: OVCAR-4 ovarian
[48] = system: A549 NSCLC
[49] = system: DU-145 prostate
[50] = system: LOX IMVI melanoma
[51] = system: MOLT-4 leukemia
[52] = system: OVCAR-3 ovarian
[53] = system: HOP-62 NSCLC
[54] = system: NCI-H460 lung
[55] = system: SNB-19 CNS
[56] = system: K-562 leukemia
[57] = system: U251 CNS

CCOC(=O)c1nnn(-c2no[n+]([O-])c2-c2ccc(OC)cc2)c1COc1cccc2cccnc12
GI50 [1]: 6.12 µM
TGI [1]: > 100 µM
GI50 [2]: 1.16 µM
TGI [2]: 5.09 µM
TGI [3]: 25.7 µM
GI50 [4]: 2.38 µM
TGI [4]: 12.8 µM
GI50 [5]: 2.45 µM
TGI [5]: 8.2 µM
GI50 [6]: 3.09 µM
TGI [6]: 13.7 µM
GI50 [7]: 0.51 µM
TGI [7]: 2.16 µM
GI50 [8]: 2.38 µM
TGI [8]: 7.03 µM
GI50 [9]: 5.09 µM
TGI [9]: 20.6 µM
GI50 [10]: 2.44 µM
TGI [10]: 6.31 µM
GI50 [11]: 0.657 µM
TGI [11]: 3.1 µM
GI50 [12]: 2.73 µM
TGI [12]: 7.98 µM
GI50 [13]: 0.399 µM
TGI [13]: 1.8 µM
GI50 [14]: 2.33 µM
TGI [14]: 5.5 µM
GI50 [15]: 2.23 µM
TGI [15]: 8.03 µM
GI50 [16]: 1.98 µM
TGI [16]: 9.95 µM
GI50 [17]: 2.59 µM
TGI [17]: 7.35 µM
GI50 [18]: 3.98 µM
TGI [18]: 16.3 µM
GI50 [19]: 1.42 µM
TGI [19]: 3.45 µM
GI50 [20]: 3.03 µM
TGI [20]: 15 µM
GI50 [21]: 1.77 µM
TGI [21]: 4.07 µM
GI50 [22]: 2.19 µM
TGI [22]: 6.13 µM
GI50 [23]: 2.22 µM
TGI [23]: 6.15 µM
GI50 [24]: 2.76 µM
TGI [24]: 13.3 µM
GI50 [25]: 3.46 µM
TGI [25]: 12.9 µM
GI50 [26]: 1.69 µM
TGI [26]: 7.49 µM
GI50 [27]: 2.15 µM
TGI [27]: 8.75 µM
GI50 [28]: 1.7 µM
TGI [28]: 3.29 µM
GI50 [29]: 2.9 µM
TGI [29]: 8.21 µM
GI50 [30]: 2.23 µM
TGI [30]: 6.38 µM
GI50 [31]: 3.05 µM
TGI [31]: 21.9 µM
GI50 [32]: 4.27 µM
TGI [32]: 16 µM
GI50 [33]: 2.29 µM
TGI [33]: 5.24 µM
GI50 [34]: 4.32 µM
TGI [34]: 17.8 µM
GI50 [35]: 3.38 µM
TGI [35]: 9.98 µM
GI50 [36]: 3.41 µM
TGI [36]: 14.1 µM
GI50 [37]: 3.79 µM
TGI [37]: 17.1 µM
GI50 [38]: 7.79 µM
TGI [38]: 35.2 µM
GI50 [39]: 0.318 µM
TGI [39]: > 100 µM
GI50 [40]: 4.67 µM
TGI [40]: 28.8 µM
GI50 [41]: 1.07 µM
TGI [41]: 5.31 µM
GI50 [42]: 0.481 µM
TGI [42]: 3.38 µM
GI50 [43]: 0.391 µM
TGI [43]: 3.59 µM
GI50 [44]: 1.97 µM
TGI [44]: 17 µM
GI50 [45]: 6.3 µM
TGI [45]: 39.7 µM
GI50 [46]: 0.638 µM
TGI [46]: 3.55 µM
GI50 [47]: 2.34 µM
TGI [47]: 13.3 µM
GI50 [48]: 3.87 µM
TGI [48]: 16.1 µM
GI50 [49]: 5.24 µM
TGI [49]: 17.1 µM
GI50 [50]: 0.355 µM
TGI [50]: 1.44 µM
GI50 [51]: 1.91 µM
TGI [51]: 8.47 µM
GI50 [52]: 2.8 µM
TGI [52]: 7.05 µM
GI50 [53]: 4.7 µM
TGI [53]: 25.9 µM
GI50 [54]: 3.29 µM
TGI [54]: 11.5 µM
GI50 [55]: 3.25 µM
TGI [55]: 14 µM

Cc1cc(C2CC(O)C(CO)O2)c(Cl)cc1Cl (configuration not stated)
GI50 [1]: > 100 µM
TGI [1]: > 100 µM
GI50 [2]: > 100 µM
TGI [2]: > 100 µM
GI50 [3]: > 100 µM
TGI [3]: > 100 µM
GI50 [4]: 39.9 µM
TGI [4]: > 100 µM
GI50 [56]: > 100 µM
TGI [56]: > 100 µM
GI50 [5]: > 100 µM
TGI [5]: > 100 µM
GI50 [6]: > 100 µM
TGI [6]: > 100 µM
GI50 [7]: > 100 µM
TGI [7]: > 100 µM
GI50 [8]: > 100 µM
TGI [8]: > 100 µM
GI50 [9]: 89.4 µM
TGI [9]: > 100 µM
GI50 [10]: > 100 µM
TGI [10]: > 100 µM
GI50 [11]: > 100 µM
TGI [11]: > 100 µM
GI50 [12]: 69.5 µM
TGI [12]: > 100 µM
GI50 [13]: > 100 µM
TGI [13]: > 100 µM
GI50 [14]: > 100 µM
TGI [14]: > 100 µM
GI50 [15]: > 100 µM
TGI [15]: > 100 µM
GI50 [16]: > 100 µM
TGI [16]: > 100 µM
GI50 [17]: > 100 µM
TGI [17]: > 100 µM
GI50 [18]: 77.8 µM
TGI [18]: > 100 µM
GI50 [19]: > 100 µM
TGI [19]: > 100 µM
GI50 [20]: > 100 µM
TGI [20]: > 100 µM
GI50 [21]: > 100 µM
TGI [21]: > 100 µM
GI50 [22]: > 100 µM
TGI [22]: > 100 µM
GI50 [23]: > 100 µM
TGI [23]: > 100 µM
GI50 [24]: 84.8 µM
TGI [24]: > 100 µM
GI50 [25]: > 100 µM
TGI [25]: > 100 µM
GI50 [26]: > 100 µM
TGI [26]: > 100 µM
GI50 [27]: 58.2 µM
TGI [27]: > 100 µM
GI50 [28]: > 100 µM
TGI [28]: > 100 µM
GI50 [29]: > 100 µM
TGI [29]: > 100 µM
GI50 [30]: > 100 µM
TGI [30]: > 100 µM
GI50 [31]: > 100 µM
TGI [31]: > 100 µM
GI50 [32]: 46.3 µM
TGI [32]: > 100 µM
GI50 [33]: > 100 µM
TGI [33]: > 100 µM
GI50 [34]: > 100 µM
TGI [34]: > 100 µM
GI50 [35]: > 100 µM
TGI [35]: > 100 µM
GI50 [37]: > 100 µM
TGI [37]: > 100 µM
GI50 [38]: 98.4 µM
TGI [38]: > 100 µM
GI50 [39]: > 100 µM
TGI [39]: > 100 µM
GI50 [40]: > 100 µM
TGI [40]: > 100 µM
GI50 [41]: > 100 µM
TGI [41]: > 100 µM
GI50 [42]: 70.4 µM
TGI [42]: > 100 µM
GI50 [43]: > 100 µM
TGI [43]: > 100 µM
GI50 [44]: > 100 µM
TGI [44]: > 100 µM
GI50 [45]: 56.4 µM
TGI [45]: > 100 µM
GI50 [46]: > 100 µM
TGI [46]: > 100 µM
GI50 [48]: > 100 µM
TGI [48]: > 100 µM
GI50 [49]: > 100 µM
TGI [49]: > 100 µM
GI50 [50]: 84.3 µM
TGI [50]: > 100 µM
GI50 [57]: > 100 µM
TGI [57]: > 100 µM
GI50 [52]: > 100 µM
TGI [52]: > 100 µM
GI50 [53]: > 100 µM
TGI [53]: > 100 µM
GI50 [54]: > 100 µM
TGI [54]: > 100 µM
GI50 [55]: > 100 µM
TGI [55]: > 100 µM
